Test results taken from ChEMBL document CHEMBL4813975, “Discovery and characterization of a novel glucose-6-phosphate dehydrogenase (G6PD) inhibitor via high-throughput screening” (Bioorg Med Chem Lett, 2021).
Calls of active or inactive are those of the source. The rule behind the calls is not given here.

Legend:
[1] = target: T1, Glucose-6-phosphate 1-dehydrogenase (Homo sapiens, UniProt P11413); assay: Inhibition of G6PD (unknown origin) assessed as reduction in 6-phospho-D-glucono-1,5-lactone and NADPH production using glucose-6-phosphate and NADP+ as substrate incubated for 15 mins by UV absorption photometry assay
[2] = target: T1, Glucose-6-phosphate 1-dehydrogenase; assay: Non-competitive inhibition of G6PD (unknown origin) using varying concentrations of G6P and NADP+ as substrate by Michaelis-Menten analysis
[3] = target: T1, Glucose-6-phosphate 1-dehydrogenase; assay: Inhibition of G6PD in human OVCAR-3 cells assessed as thermal instability of the enzyme by CETSA analysis; format: cell-based
[4] = target: T1, Glucose-6-phosphate 1-dehydrogenase; assay: Reversible inhibition of G6PD (unknown origin) using glucose-6-phosphate and NADP+ as substrate measured after dilution of 12XIC50 to 0.6XIC50 by dilution based analysis
[5] = target: T1, Glucose-6-phosphate 1-dehydrogenase; assay: Competitive inhibition of G6PD (unknown origin) using glucose-6-phosphate and varying concentrations of NADP+ as substrate by Michaelis-Menten analysis
[6] = target: T1, Glucose-6-phosphate 1-dehydrogenase; assay: Non-competitive inhibition of G6PD (unknown origin) using glucose-6-phosphate and varying concentrations of NADP+ as substrate by Michaelis-Menten analysis
OVCAR-3 = assay: Inhibition of colony formation in human OVCAR-3 cells overexpressing G6PD incubated for 14 days by crystal violet staining based assay; format: functional, cell-based
[7] = target: T1, Glucose-6-phosphate 1-dehydrogenase; assay: Binding affinity to G6PD (unknown origin) assessed as equilibrium dissociation constant by surface plasmon resonance assay
[8] = target: T1, Glucose-6-phosphate 1-dehydrogenase; assay: Competitive inhibition of G6PD (unknown origin) using varying concentrations of G6P and NADP+ as substrate by Michaelis-Menten analysis

T1 sequence (P11413 whole entry): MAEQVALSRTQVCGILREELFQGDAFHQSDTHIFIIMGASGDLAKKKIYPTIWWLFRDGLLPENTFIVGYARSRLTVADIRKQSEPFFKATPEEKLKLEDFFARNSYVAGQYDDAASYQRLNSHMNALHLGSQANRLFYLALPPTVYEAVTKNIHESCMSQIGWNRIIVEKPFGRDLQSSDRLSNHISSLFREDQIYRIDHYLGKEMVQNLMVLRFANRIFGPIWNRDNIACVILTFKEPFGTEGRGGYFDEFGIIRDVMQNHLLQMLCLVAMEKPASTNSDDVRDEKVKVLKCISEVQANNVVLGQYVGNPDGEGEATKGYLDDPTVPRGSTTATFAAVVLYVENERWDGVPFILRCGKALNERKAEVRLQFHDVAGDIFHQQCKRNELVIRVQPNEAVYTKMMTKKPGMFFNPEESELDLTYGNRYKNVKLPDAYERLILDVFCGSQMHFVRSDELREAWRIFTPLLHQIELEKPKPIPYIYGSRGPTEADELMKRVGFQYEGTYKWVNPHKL

With C[C@]12CC[C@H](O)CC1=CC[C@@H]1[C@@H]2CC[C@]2(C)C(=O)CC[C@@H]12 [PRASTERONE] the IC50 [1] was 12.5 µM.
Work on O=c1c(O)c(-c2ccc(O)c(O)c2)oc2cc(O)cc(O)c12 yielded an IC50 [1] of 31 µM.
O=C(/C=C/c1ccc(O)c(O)c1)O[C@@H]1C[C@](O)(C(=O)O)C[C@@H](OC(=O)/C=C/c2ccc(O)c(O)c2)[C@H]1O showed an IC50 [1] of 37.7 µM.
With COc1cc(O)c2c(c1)oc(=O)c1c3cc(O)c(O)cc3oc21 [WEDELOLACTONE] the Ki [2] was 9.94 µM, the inhibition [3] was “Active” and the inhibition [4] was “Active”. It also gave a Ki [5] of 1.19 µM, a Ki [6] of 5.79 µM and an EC50 (OVCAR-3; OVCAR-3, 336 h) of 10.6 µM. The inhibition (OVCAR-3; time 14.0 day) was “Dose-Dependent Effect”, the Kd [7] was 3.64 µM and the Ki [8] was 2.54 µM. The IC50 [1] was 5.18 µM.
OC[C@H]1O[C@@H](Oc2cc(O)cc(/C=C/c3ccc(O)cc3)c2)[C@H](O)[C@@H](O)[C@@H]1O [PICEID] was tested, and the IC50 [1] was 74.5 µM.
